Reference: the kinase profiling compilation of Christmann-Franck et al. (2016)
Values joined by “and” are separate entries in the source; they are usually repeats but may differ in a detail not shown here. Equal entries are not always repeated.

Experiments:
Experiment in all cases: KINOMEscan competition binding
Settings in all cases: compound 10.0 µM
[1] = target: BRSK2 (human) (UniProt Q8IWQ3)
[2] = target: CAMK2B (human) (UniProt Q13554)
[3] = target: CAMKK2 (human) (UniProt Q96RR4)
[4] = target: CDC42BPB (human) (UniProt Q9Y5S2)
[5] = target: CDC42BPG (human) (UniProt Q6DT37)
CDC42BPG (human), sequence (Q6DT37 whole entry, looked up): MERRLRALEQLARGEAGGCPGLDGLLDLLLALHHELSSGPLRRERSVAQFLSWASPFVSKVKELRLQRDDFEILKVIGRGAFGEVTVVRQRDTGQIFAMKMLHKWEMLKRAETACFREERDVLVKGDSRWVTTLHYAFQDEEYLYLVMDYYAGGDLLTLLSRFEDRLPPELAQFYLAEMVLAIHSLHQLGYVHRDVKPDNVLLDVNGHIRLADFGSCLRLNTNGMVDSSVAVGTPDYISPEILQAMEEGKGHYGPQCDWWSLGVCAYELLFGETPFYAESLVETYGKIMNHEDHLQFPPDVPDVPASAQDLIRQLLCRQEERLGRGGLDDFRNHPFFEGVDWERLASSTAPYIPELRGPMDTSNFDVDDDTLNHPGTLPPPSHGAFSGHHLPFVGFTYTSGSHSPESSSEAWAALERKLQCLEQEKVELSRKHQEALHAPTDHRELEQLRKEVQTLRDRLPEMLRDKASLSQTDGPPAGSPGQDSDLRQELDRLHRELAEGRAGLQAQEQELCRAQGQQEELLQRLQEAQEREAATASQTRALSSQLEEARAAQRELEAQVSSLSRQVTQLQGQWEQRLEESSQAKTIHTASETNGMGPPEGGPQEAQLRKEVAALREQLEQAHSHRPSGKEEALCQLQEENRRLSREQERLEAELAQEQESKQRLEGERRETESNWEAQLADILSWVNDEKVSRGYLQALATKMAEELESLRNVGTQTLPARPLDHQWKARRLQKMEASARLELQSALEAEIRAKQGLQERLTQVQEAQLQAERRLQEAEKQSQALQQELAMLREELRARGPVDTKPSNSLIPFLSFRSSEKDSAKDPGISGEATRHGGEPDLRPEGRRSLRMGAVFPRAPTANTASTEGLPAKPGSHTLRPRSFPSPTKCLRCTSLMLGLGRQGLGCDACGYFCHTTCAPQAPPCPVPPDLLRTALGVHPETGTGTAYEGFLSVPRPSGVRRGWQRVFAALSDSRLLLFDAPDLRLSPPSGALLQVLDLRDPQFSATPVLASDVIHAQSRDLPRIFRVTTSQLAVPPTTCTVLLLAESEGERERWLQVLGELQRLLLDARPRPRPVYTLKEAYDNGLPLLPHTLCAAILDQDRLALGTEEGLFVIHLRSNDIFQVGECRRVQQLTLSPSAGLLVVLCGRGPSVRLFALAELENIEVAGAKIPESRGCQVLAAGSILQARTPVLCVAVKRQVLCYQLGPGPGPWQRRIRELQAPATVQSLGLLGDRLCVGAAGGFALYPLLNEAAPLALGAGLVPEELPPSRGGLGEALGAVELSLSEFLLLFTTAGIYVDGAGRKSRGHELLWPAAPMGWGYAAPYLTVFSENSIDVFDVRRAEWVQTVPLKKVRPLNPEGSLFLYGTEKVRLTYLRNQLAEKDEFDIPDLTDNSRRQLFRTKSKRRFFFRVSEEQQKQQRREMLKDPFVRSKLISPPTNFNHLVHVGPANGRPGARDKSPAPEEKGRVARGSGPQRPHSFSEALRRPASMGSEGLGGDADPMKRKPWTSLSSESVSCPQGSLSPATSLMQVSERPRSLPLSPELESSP

[6] = target: CLK2 (human) (UniProt P49760)
[7] = target: CLK4 (human) (UniProt Q9HAZ1)
[8] = target: CSF1R (human) (UniProt P07333)
[9] = target: CSNK1E (human) (UniProt P49674)
[10] = target: CSNK1G1 (human) (UniProt Q9HCP0)
[11] = target: EGFR (human) (UniProt P00533)
[12] = target: EPHA8 (human) (UniProt P29322)
[13] = target: FLT3 (human) (UniProt P36888)
[14] = target: FLT4 (human) (UniProt P35916)
[15] = target: HCK (human) (UniProt P08631)
[16] = target: HIPK1 (human) (UniProt Q86Z02)
[17] = target: JAK1 JH1 catalytic (human) (UniProt P23458)
[18] = target: JAK3 JH1 catalytic (human) (UniProt P52333)
[19] = target: MAP3K4 (human) (UniProt Q9Y6R4)
[20] = target: MAP3K7 (human) (UniProt O43318)
[21] = target: MAP4K2 (human) (UniProt Q12851)
MAP4K2 (human), sequence (Q12851 whole entry, looked up): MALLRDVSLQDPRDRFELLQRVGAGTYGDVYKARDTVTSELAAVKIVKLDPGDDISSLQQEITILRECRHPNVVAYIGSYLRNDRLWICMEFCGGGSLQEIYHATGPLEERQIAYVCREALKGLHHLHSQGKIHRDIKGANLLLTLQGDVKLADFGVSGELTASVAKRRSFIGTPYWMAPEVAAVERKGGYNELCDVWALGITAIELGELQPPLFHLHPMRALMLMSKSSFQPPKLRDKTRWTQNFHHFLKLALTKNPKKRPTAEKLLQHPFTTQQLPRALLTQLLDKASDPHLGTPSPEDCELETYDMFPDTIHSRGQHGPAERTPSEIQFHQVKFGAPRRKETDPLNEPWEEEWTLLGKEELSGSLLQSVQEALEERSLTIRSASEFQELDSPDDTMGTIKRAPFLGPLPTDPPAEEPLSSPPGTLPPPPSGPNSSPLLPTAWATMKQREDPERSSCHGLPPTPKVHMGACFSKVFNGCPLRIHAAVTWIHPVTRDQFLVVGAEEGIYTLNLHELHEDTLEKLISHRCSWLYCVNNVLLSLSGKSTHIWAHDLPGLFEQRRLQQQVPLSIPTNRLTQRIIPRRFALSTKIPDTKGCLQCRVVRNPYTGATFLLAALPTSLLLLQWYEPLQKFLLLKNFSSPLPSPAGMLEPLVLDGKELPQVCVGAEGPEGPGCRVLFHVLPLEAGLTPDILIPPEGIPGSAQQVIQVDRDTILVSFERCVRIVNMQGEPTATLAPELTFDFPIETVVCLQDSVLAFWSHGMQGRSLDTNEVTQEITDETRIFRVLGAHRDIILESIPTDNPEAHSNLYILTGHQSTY

[22] = target: MAP4K5 (human) (UniProt Q9Y4K4)
[23] = target: MAPK7 (human) (UniProt Q13164)
[24] = target: MAPKAPK5 (human) (UniProt Q8IW41)
[25] = target: MINK1 (human) (UniProt Q8N4C8)
[26] = target: MTOR (human) (UniProt P42345)
[27] = target: MUSK (human) (UniProt O15146)
[28] = target: MYLK (human) (UniProt Q15746)
MYLK (human), sequence (Q15746 whole entry, looked up): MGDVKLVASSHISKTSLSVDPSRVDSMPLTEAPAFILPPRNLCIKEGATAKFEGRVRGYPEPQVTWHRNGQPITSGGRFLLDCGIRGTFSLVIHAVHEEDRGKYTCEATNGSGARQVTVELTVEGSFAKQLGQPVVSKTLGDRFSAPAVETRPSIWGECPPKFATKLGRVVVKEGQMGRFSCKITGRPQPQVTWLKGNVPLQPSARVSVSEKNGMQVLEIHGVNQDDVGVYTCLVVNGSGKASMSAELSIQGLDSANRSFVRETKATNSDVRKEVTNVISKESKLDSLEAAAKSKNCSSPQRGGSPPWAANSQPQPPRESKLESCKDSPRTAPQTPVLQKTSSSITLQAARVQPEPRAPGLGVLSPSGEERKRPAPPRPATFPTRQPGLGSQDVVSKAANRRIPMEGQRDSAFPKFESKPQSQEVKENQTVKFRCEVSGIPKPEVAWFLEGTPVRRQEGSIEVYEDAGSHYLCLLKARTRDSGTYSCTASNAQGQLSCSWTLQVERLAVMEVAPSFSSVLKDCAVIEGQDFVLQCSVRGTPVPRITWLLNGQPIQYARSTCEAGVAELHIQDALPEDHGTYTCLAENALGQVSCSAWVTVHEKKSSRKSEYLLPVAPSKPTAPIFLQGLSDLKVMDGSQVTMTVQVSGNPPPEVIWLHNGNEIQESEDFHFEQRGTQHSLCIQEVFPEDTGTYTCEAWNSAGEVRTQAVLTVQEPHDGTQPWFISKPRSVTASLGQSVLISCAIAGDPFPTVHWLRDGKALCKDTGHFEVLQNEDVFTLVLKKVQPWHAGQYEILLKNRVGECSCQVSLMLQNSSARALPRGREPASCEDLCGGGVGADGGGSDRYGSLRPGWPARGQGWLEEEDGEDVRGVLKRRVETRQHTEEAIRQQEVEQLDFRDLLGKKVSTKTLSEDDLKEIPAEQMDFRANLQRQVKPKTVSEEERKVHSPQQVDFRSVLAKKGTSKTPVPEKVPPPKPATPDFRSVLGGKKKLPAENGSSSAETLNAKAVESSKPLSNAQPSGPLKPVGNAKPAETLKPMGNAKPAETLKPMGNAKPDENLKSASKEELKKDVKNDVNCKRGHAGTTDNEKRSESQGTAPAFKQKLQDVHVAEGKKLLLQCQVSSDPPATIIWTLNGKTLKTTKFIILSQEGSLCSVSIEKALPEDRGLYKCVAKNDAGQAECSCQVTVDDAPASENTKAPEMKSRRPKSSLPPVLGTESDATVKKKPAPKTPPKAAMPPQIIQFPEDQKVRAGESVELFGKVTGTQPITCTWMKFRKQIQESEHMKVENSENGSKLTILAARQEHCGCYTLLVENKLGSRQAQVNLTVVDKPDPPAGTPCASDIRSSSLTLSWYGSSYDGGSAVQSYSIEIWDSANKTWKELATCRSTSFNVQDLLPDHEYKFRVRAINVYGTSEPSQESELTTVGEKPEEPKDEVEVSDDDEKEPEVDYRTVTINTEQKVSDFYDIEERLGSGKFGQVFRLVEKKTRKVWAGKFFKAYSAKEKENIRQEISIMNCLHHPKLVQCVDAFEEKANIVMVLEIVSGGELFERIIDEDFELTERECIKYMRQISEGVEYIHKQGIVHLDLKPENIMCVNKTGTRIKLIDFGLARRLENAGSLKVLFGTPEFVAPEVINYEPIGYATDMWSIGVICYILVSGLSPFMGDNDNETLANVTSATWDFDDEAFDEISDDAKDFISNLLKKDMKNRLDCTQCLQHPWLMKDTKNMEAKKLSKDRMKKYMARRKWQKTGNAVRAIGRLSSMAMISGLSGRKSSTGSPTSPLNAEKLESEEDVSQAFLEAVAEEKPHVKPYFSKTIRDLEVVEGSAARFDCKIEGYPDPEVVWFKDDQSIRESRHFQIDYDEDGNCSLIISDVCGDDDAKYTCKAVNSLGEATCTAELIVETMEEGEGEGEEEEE

[29] = target: NEK3 (human) (UniProt P51956)
NEK3 (human), sequence (P51956 whole entry, looked up): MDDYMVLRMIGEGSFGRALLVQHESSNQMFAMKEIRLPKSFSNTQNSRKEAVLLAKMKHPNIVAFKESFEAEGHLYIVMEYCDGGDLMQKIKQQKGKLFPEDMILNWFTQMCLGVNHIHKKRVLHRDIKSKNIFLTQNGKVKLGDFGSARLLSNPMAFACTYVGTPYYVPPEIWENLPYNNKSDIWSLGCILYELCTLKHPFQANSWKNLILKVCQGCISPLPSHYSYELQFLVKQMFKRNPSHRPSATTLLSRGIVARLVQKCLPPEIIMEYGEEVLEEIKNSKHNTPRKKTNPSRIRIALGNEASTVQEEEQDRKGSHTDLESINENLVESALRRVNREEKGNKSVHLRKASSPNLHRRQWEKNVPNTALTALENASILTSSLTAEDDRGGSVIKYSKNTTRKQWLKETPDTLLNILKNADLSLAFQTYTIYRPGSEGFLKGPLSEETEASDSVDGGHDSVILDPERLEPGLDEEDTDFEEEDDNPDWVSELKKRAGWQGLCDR

[30] = target: PLK1 (human) (UniProt P53350)
[31] = target: PLK3 (human) (UniProt Q9H4B4)
[32] = target: RAF1 (human) (UniProt P04049)
[33] = target: RIOK3 (human) (UniProt O14730)
[34] = target: RPS6KA1 KD2 (human) (UniProt Q15418)
[35] = target: RPS6KA4 KD1 (human) (UniProt O75676)
[36] = target: STK11 (human) (UniProt Q15831)
[37] = target: TIE1 (human) (UniProt P35590)
[38] = target: ULK2 (human) (UniProt Q8IYT8)
[39] = target: MAP4K4 (human) (UniProt O95819)
[40] = target: RPS6KA3 KD1 (human) (UniProt P51812)

SMILES	kinase still bound, per cent of control [1]	kinase still bound, per cent of control [2]	kinase still bound, per cent of control [3]	kinase still bound, per cent of control [4]	kinase still bound, per cent of control [5]	kinase still bound, per cent of control [6]	kinase still bound, per cent of control [7]	kinase still bound, per cent of control [8]	kinase still bound, per cent of control [9]	kinase still bound, per cent of control [12]	kinase still bound, per cent of control [13]	kinase still bound, per cent of control [14]	kinase still bound, per cent of control [15]	kinase still bound, per cent of control [16]	kinase still bound, per cent of control [17]	kinase still bound, per cent of control [19]	kinase still bound, per cent of control [20]	kinase still bound, per cent of control [21]	kinase still bound, per cent of control [22]	kinase still bound, per cent of control [23]	further results
COc1cc2c(Nc3ccc(NC(=O)c4ccccc4)cc3)ncnc2cc1OCCCN1CCOCC1	100%	78%	81%	100%	72%	80%	100%	16%	80%	83%	8.8%	83%	2%	14%	100%	62%	49%	39%	2.7%	89%	kinase still bound, per cent of control [10]: 97%; kinase still bound, per cent of control [11]: 0.65%; kinase still bound, per cent of control [18]: 62%; kinase still bound, per cent of control [24]: 100%; kinase still bound, per cent of control [25]: 33%; kinase still bound, per cent of control [26]: 70%; kinase still bound, per cent of control [27]: 100%; kinase still bound, per cent of control [28]: 92%; kinase still bound, per cent of control [29]: 100%; kinase still bound, per cent of control [30]: 100%; kinase still bound, per cent of control [31]: 99%; kinase still bound, per cent of control [32]: 100%; kinase still bound, per cent of control [33]: 100%; kinase still bound, per cent of control [34]: 72%; kinase still bound, per cent of control [35]: 100%; kinase still bound, per cent of control [36]: 100%; kinase still bound, per cent of control [37]: 27%; kinase still bound, per cent of control [38]: 91%
CC1=C(C(=O)Nc2cc3cn[nH]c3cc2F)C(c2ccc(C(F)(F)F)cc2)CC(=O)N1 (stereo not drawn)	90%	94%	55%	22%	83%	54%	100%	68%	79%	71%	100%	94%	41%	75%	28%	97%	78%	96%	90%	82%	kinase still bound, per cent of control [10]: 100%; kinase still bound, per cent of control [11]: 40%; kinase still bound, per cent of control [39]: 78%; kinase still bound, per cent of control [24]: 100%; kinase still bound, per cent of control [25]: 71%; kinase still bound, per cent of control [26]: 89%; kinase still bound, per cent of control [27]: 95%; kinase still bound, per cent of control [28]: 75%; kinase still bound, per cent of control [29]: 100%; kinase still bound, per cent of control [30]: 96%; kinase still bound, per cent of control [31]: 84%; kinase still bound, per cent of control [32]: 100%; kinase still bound, per cent of control [33]: 100%; kinase still bound, per cent of control [34]: 83%; kinase still bound, per cent of control [40]: 53%; kinase still bound, per cent of control [35]: 98%; kinase still bound, per cent of control [36]: 100%; kinase still bound, per cent of control [37]: 75%; kinase still bound, per cent of control [38]: 85%
COc1cc2ncnc(Nc3cccc(Cl)c3)c2cc1OC	45%	95%	72%	98%	56%	53%	37%	72% and 91%	32%	38%	42% and 58%	79%	6.8%	48%	84%	83%	39%	36%	26%	100%	kinase still bound, per cent of control [10]: 100%; kinase still bound, per cent of control [11]: 0.05%; kinase still bound, per cent of control [18]: 38%; kinase still bound, per cent of control [24]: 9.9%; kinase still bound, per cent of control [25]: 37%; kinase still bound, per cent of control [26]: 83%; kinase still bound, per cent of control [27]: 100%; kinase still bound, per cent of control [28]: 18%; kinase still bound, per cent of control [29]: 78%; kinase still bound, per cent of control [30]: 92%; kinase still bound, per cent of control [31]: 85%; kinase still bound, per cent of control [32]: 84%; kinase still bound, per cent of control [33]: 78%; kinase still bound, per cent of control [34]: 28%; kinase still bound, per cent of control [40]: 67%; kinase still bound, per cent of control [35]: 100%; kinase still bound, per cent of control [36]: 86%; kinase still bound, per cent of control [37]: 71%; kinase still bound, per cent of control [38]: 87%
CCN(CCO)CCCOc1ccc2c(Nc3cc(CC(=O)Nc4cccc(F)c4)[nH]n3)ncnc2c1	100%	84%	100%	100%	100%	67%	36%	5%	100%	90%	0.4%	38%	31%	40%	100%	90%	16%	29%	0.95%	87%	kinase still bound, per cent of control [18]: 87%; kinase still bound, per cent of control [39]: 98%; kinase still bound, per cent of control [24]: 100%; kinase still bound, per cent of control [25]: 25%; kinase still bound, per cent of control [26]: 100%; kinase still bound, per cent of control [27]: 3.3%; kinase still bound, per cent of control [28]: 80%; kinase still bound, per cent of control [29]: 100%; kinase still bound, per cent of control [30]: 100%; kinase still bound, per cent of control [31]: 89%; kinase still bound, per cent of control [32]: 100%; kinase still bound, per cent of control [33]: 100%; kinase still bound, per cent of control [34]: 69%; kinase still bound, per cent of control [40]: 80%; kinase still bound, per cent of control [35]: 73%; kinase still bound, per cent of control [36]: 80%; kinase still bound, per cent of control [38]: 100%
